Laboratory results as given in US11634447B2 (priority 2012, dated 2023).

Test system: bacterial strain LF82 binding to the glycoprotein BSA-(Mannose)3
Test: Bacterial Binding Assay (BBA)
Format: cell-based, Escherichia coli
Conditions: read-out: Bacterial Binding Assay IC50, LF82/Luciferase strain binding to BSA-(Man)3 coated plates, luminescence
Outline: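 Inhibition of LF82/luciferase E. coli adhesion is read as luminescence after washing off unbound cells. Compound and bacteria (10^7 per well) are co-incubated 40-75 min at room temperature on wells coated with 0.5-2 μg/mL BSA-(Man)3, with BSA-only wells as background; IC50 values derived.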

Structure (SMILES): OC[C@H]1O[C@H](C#Cc2ccc3c(c2)c2cc(C#C[C@H]4O[C@H](CO)[C@@H](O)[C@H](O)[C@@H]4O)ccc2n3-c2ccccc2)[C@@H](O)[C@@H](O)[C@@H]1O [Compound 164]
- IC50: 35 nM

Structure (SMILES): CN(C)CC(O)Cn1c2ccc(C#C[C@H]3O[C@H](CO)[C@@H](O)[C@H](O)[C@@H]3O)cc2c2cc(C#C[C@H]3O[C@H](CO)[C@@H](O)[C@H](O)[C@@H]3O)ccc21 (stereo partly drawn) [Compound 173, (2R,3S,4R,5S,6R)-2-[2-[9-[3-(dimethylamino)-2-hydroxy-propyl]-6-[2-[(2R,3S,4R,5S,6R)-3,4,5-trihydroxy-6-(hydroxymethyl)tetrahydropyran-2-yl]ethynyl]carbazol-3-yl]ethynyl]-6-(hydroxymethyl)tetrahydropyran-3,4,5-triol]
- IC50: 9.3 nM

Structure (SMILES): COCCc1cc(C#C[C@H]2O[C@H](CO)[C@@H](O)[C@H](O)[C@@H]2O)ccc1C#C[C@H]1O[C@H](CO)[C@@H](O)[C@H](O)[C@@H]1O [Compound 74]
- IC50: 8.1 nM

Structure (SMILES): Cc1cc(C#C[C@H]2O[C@H](CO)[C@@H](O)[C@H](O)[C@@H]2O)ccc1[C@H]1O[C@H](CO)[C@@H](O)[C@H](O)[C@@H]1O [Compound 142]
- IC50: 91 nM

Structure (SMILES): CCc1cc(C#C[C@H]2O[C@H](CO)[C@@H](O)[C@H](O)[C@@H]2O)c(CC)cc1C#C[C@H]1O[C@H](CO)[C@@H](O)[C@H](O)[C@@H]1O [Compound 86, (2R,3S,4R,5S,6R)-2-[2-[2,5-diethyl-4-[2-[(2R,3S,4R,5S,6R)-3,4,5-trihydroxy-6-(hydroxymethyl)tetrahydropyran-2-yl]ethynyl]phenyl]ethynyl]-6-(hydroxymethyl)tetrahydropyran-3,4,5-triol]
- IC50: 22 nM

Structure (SMILES): Cc1cc(-c2ccc([C@H]3O[C@H](CO)[C@@H](O)[C@H](O)[C@@H]3O)c(C)c2)ccc1[C@H]1O[C@H](CO)[C@@H](O)[C@H](O)[C@@H]1O [Compound 68]
- IC50: 7.7 nM

Structure (SMILES): CCC(=O)c1c(C#C[C@H]2O[C@H](CO)[C@@H](O)[C@H](O)[C@@H]2O)ccc2c1C1(CCNCC1)c1cc(C#C[C@H]3O[C@H](CO)[C@@H](O)[C@H](O)[C@@H]3O)ccc1-2 [Compound 223, 1-[2,7-bis[2-[(2R,3S,4R,5S,6R)-3,4,5-trihydroxy-6-(hydroxymethyl)tetrahydropyran-2-yl]ethynyl]spiro[fluorene-9,4piperidine]-1-yl]propan-1-one]
- IC50: 0.06 nM

Structure (SMILES): OC[C@H]1O[C@H](C#Cc2ccc3c(c2)C2(SCCCS2)c2cc(C#C[C@H]4O[C@H](CO)[C@@H](O)[C@H](O)[C@@H]4O)ccc2-3)[C@@H](O)[C@@H](O)[C@@H]1O [Compound 191]
- IC50: 0.36 nM

Structure (SMILES): Cc1cc([C@H]2O[C@H](CO)[C@@H](O)[C@H](O)[C@@H]2O)ccc1-c1ccc([C@H]2O[C@H](CO)[C@@H](O)[C@H](O)[C@@H]2O)c(C)c1 [Compound 149]
- IC50: 27 nM

Structure (SMILES): OC[C@H]1O[C@H](C#Cc2ccc3c(c2)C(O)(CC2CCCCC2)c2cc(C#C[C@H]4O[C@H](CO)[C@@H](O)[C@H](O)[C@@H]4O)ccc2-3)[C@@H](O)[C@@H](O)[C@@H]1O (stereo partly drawn) [Compound 215, (2R,3S,4R,5S,6R)-2-[2-[9-(cyclohexylmethyl)-9-hydroxy-7-[2-[(2R,3S,4R,5S,6R)-3,4,5-trihydroxy-6-(hydroxymethyl)tetrahydropyran-2-yl]ethynyl]fluoren-2-yl]ethynyl]-6-(hydroxymethyl)tetrahydropyran-3,4,5-triol]
- IC50: 5 nM

Structure (SMILES): CC(C)C(=O)N1CCC2(CC1)c1cc(C#C[C@H]3O[C@H](CO)[C@@H](O)[C@H](O)[C@@H]3O)ccc1-c1ccc(C#C[C@H]3O[C@H](CO)[C@@H](O)[C@H](O)[C@@H]3O)cc12 [Compound 224, 1-[2,7-bis[2-[(2R,3S,4R,5S,6R)-3,4,5-trihydroxy-6-(hydroxymethyl)tetrahydropyran-2-yl]ethynyl]spiro[fluorene-9,4piperidine]-1yl]-2-methyl-propan-l-one]
- IC50: 0.08 nM
